Measurements taken from US7511055B2, “Naphthyridin derivatives” (Hoffmann-La Roche Inc., priority 2005, dated 2009).
pKi: −log10 of the molar value.

The molecules below were run against T1, human mGlu 5a receptor (Homo sapiens, UniProt P41594) (assay: [3H]MPEP competition binding on membranes of EBNA cells transfected with human mGlu 5a receptor). Conditions: competition with [3H]MPEP (2 nM), 1 h at 4° C., Ki=IC50/[1+L/Kd].
T1 construct: expressed in transfected cells; host or cells: EBNA cells (transient transfection); cell membrane homogenates
T1 sequence (P41594 21-1180 isoform P41594-2 limits assumed): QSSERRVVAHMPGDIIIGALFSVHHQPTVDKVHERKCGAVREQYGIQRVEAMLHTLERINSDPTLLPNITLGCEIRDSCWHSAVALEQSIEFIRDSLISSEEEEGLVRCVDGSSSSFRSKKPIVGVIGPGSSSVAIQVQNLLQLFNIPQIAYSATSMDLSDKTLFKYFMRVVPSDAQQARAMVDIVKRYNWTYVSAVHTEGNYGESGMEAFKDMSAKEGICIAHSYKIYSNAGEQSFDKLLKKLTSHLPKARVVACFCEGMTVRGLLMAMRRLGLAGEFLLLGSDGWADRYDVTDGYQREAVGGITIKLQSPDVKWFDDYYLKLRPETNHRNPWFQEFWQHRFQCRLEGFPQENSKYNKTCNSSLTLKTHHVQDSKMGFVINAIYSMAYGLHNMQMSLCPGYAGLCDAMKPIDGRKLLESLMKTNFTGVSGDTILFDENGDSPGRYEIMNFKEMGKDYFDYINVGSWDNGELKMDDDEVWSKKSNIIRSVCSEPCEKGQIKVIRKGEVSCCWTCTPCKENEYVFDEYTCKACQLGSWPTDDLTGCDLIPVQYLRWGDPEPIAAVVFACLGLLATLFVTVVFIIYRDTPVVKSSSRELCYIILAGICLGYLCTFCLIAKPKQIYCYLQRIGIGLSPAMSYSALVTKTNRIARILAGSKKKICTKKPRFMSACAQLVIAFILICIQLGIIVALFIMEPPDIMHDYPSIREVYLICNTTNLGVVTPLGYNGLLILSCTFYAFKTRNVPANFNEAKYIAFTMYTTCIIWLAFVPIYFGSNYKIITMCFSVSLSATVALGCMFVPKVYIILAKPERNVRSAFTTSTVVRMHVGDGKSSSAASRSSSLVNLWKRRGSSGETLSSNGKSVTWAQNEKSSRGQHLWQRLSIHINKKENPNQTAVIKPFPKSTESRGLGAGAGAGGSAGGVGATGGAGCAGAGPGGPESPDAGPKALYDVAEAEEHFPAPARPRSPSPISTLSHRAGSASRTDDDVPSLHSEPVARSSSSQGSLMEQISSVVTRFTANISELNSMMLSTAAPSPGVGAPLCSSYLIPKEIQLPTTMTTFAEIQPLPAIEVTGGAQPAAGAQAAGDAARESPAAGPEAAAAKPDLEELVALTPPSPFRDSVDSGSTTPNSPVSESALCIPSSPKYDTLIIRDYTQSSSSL
Procedure: The pharmacological activity of the compounds was tested using the following method: For binding experiments, cDNA encoding human mGlu 5a receptor was transiently transfected into EBNA cells using a procedure described by Schlaeger and Christensen [Cytotechnology 15:1-13 (1998)]. Cell membrane homogenates were stored at −80° C. until the day of assay where upon they were thawed and resuspended and polytronised in 15 mM Tris-HCl, 120 mM NaCl, 100 mM KCl, 25 mM CaCl2, 25 mM MgCl2 binding buffer at pH 7.4 to a final assay concentration of 20 μg protein/well.
Saturation isotherms were determined by addition of twelve [^3H]MPEP concentrations (0.04-100 nM) to these membranes (in a total volume of 200 μl) for 1 h at 4° C. Competition experiments were performed with a fixed concentration of [^3H]MPEP (2 nM) and IC50 values of test compounds evaluated using 11 concentrations (0.3-10,000 nM). Incubations were performed for 1 h at 4° C.
At the end of the incubation, membranes were filtered onto unifilter (96-well white microplate with bonded GF/C filter preincubated 1 h in 0.1% PEI in wash buffer, Packard BioScience, Meriden, Conn.) with a Filtermate 96 harvester (Packard BioScience) and washed 3 times with cold 50 mM Tris-HCl, pH 7.4 buffer. Nonspecific binding was measured in the presence of 10 μM MPEP. The radioactivity on the filter was counted (3 min) on a Packard Top-count microplate scintillation counter with quenching correction after addition of 45 μl of microscint 40 (Canberra Packard S.A., Zürich, Switzerland) and shaking for 20 min.
The inhibition (antagonists) curves were fitted with a four parameter logistic equation giving IC50, and Hill coefficient using iterative non linear curve fitting software (Xcel fit).
For binding experiments the Ki values of the compounds tested are given. The Ki value is defined by the following formula: Ki=IC50/[1+L/Kd] in which the IC50 values are those concentrations of the compounds tested which cause 50% inhibition of the competing radioligand ([^3H]MPEP). L is the concentration of radioligand used in the binding experiment and the Kd value of the radioligand is empirically determined for each batch of membranes prepared.

Row | pKi | SMILES
1 | 7.60 | Cc1cccc(Nc2nccc3cccnc23)n1 [Example 1, (6-Methyl-pyridin-2-yl)-[1,7]naphthyridin-8-yl-amine]
2 | 7.05 | Clc1cccc(Nc2nccc3cccnc23)c1 [Example 2, (3-Chloro-phenyl)-[1,7]naphthyridin-8-yl-amine]
3 | 7.21 | Cc1csc(Nc2nccc3cccnc23)n1 [Example 5, (4-Methyl-thiazol-2-yl)-[1,7]naphthyridin-8-yl-amine]
4 | 7.48 | Cc1cccc(Nc2ncc(-c3cccnc3)c3cccnc23)n1 [Example 6, (6-Methyl-pyridin-2-yl)-(5-pyridin-3-yl-[1,7]naphthyridin-8-yl)-amine]
5 | 7.74 | Clc1cccc(Nc2ncc(-c3cccnc3)c3cccnc23)c1 [Example 7, (3-Chloro-phenyl)-(5-pyridin-3-yl-[1,7]naphthyridin-8-yl)-amine]
6 | 7.42 | Clc1cc(Nc2ncc(-c3cccnc3)c3cccnc23)ccn1 [Example 8, (2-Chloro-pyridin-4-yl)-(5-pyridin-3-yl-[1,7]naphthyridin-8-yl)-amine]
7 | 7.07 | Cc1ccc(Nc2ncc(-c3cccnc3)c3cccnc23)nc1 [Example 9, (5-Methyl-pyridin-2-yl)-(5-pyridin-3-yl-[1,7]naphthyridin-8-yl)-amine]
8 | 7.72 | Fc1ccc(Nc2ncc(-c3cccnc3)c3cccnc23)nc1 [Example 10, (5-Fluoro-pyridin-2-yl)-(5-pyridin-3-yl-[1,7]naphthyridin-8-yl)-amine]
9 | 8.10 | Clc1cccc(Nc2ncc(-c3ccc(Cl)nc3)c3cccnc23)c1 [Example 11, (3-Chloro-phenyl)-[5-(6-chloro-pyridin-3-yl)-[1,7]naphthyridin-8-yl]-amine]
10 | 7.25 | COc1ccc(-c2cnc(Nc3ccnc(Cl)c3)c3ncccc23)cn1 [Example 12, (2-Chloro-pyridin-4-yl)-[5-(6-methoxy-pyridin-3-yl)-[1,7]naphthyridin-8-yl]-amine]
11 | 7.18 | Fc1cncc(-c2cnc(Nc3ccnc(Cl)c3)c3ncccc23)c1 [Example 14, (2-Chloro-pyridin-4-yl)-[5-(5-fluoro-pyridin-3-yl)-[1,7]naphthyridin-8-yl]-amine]
12 | 7.18 | Fc1ccc(Nc2ncc(-c3cncc(F)c3)c3cccnc23)nc1 [Example 15, (5-Fluoro-pyridin-2-yl)-[5-(5-fluoro-pyridin-3-yl)-[1,7]naphthyridin-8-yl]-amine]
13 | 7.39 | COc1cncc(-c2cnc(Nc3ccc(F)cn3)c3ncccc23)c1 [Example 17, (5-Fluoro-pyridin-2-yl)-[5-(5-methoxy-pyridin-3-yl)-[1,7]naphthyridin-8-yl]-amine]
14 | 7.39 | Clc1cc(Nc2ncc(-c3cncnc3)c3cccnc23)ccn1 [Example 18, (2-Chloro-pyridin-4-yl)-(5-pyrimidin-5-yl-[1,7]naphthyridin-8-yl)-amine]
15 | 7.36 | Fc1ccc(Nc2ncc(-c3cncnc3)c3cccnc23)nc1 [Example 19, (5-Fluoro-pyridin-2-yl)-(5-pyrimidin-5-yl-[1,7]naphthyridin-8-yl)-amine]
16 | 7.25 | COc1cccc(-c2cnc(Nc3nc(C)cs3)c3nc(C)ccc23)c1 [Example 42, [5-(3-Methoxy-phenyl)-2-methyl-[1,7]naphthyridin-8-yl]-(4-methyl-thiazol-2-yl)-amine]
17 | 7.29 | Cc1csc(Nc2ncc(-c3cccc(C(F)(F)F)c3)c3ccc(C)nc23)n1 [Example 43, (4-Methyl-thiazol-2-yl)-[2-methyl-5-(3-trifluoromethyl-phenyl)-[1,7]naphthyridin-8-yl]-amine]
18 | 7.42 | Cc1ccc2c(-c3cccc(F)c3)cnc(Nc3ccn(C)n3)c2n1 [Example 68, [5-(3-Fluoro-phenyl)-2-methyl-[1,7]naphthyridin-8-yl]-(1-methyl-1H-pyrazol-3-yl)-amine]
19 | 7.29 | Cc1csc(Nc2ncc(-c3cncc(C(F)(F)F)n3)c3ccc(C)nc23)n1 [Example 81, (4-Methyl-thiazol-2-yl)-[2-methyl-5-(6-trifluoromethyl-pyrazin-2-yl)-[1,7]naphthyridin-8-yl]-amine]
